Results on one compound are retold here after ChEMBL document CHEMBL3853350 (ACS Med Chem Lett, 2016).

The structures appear in SMILES notation.

The term IC50 denotes the concentration that inhibits the measured activity by half. Broadly, the Cmax is the maximum level reached in the sampled fluid or tissue. For orientation: half-life means the time in which the quantity being followed falls by half. Usually bioavailability stands for dose-corrected exposure relative to a reference, in per cent.

The target of one data set is Cytochrome P450 3A4 (Homo sapiens, UniProt P08684). Nature of the data set: Inhibition of CYP3A4 in human liver microsomes after 5 mins in presence of NADPH by LC-MS/MS analysis. It is filed as ADME. For orientation: Microsomes from liver hold many membrane-bound enzymes, among them those of drug oxidation.
Data set [1] is described as follows: Cmax in Beagle dog plasma at […] administered via oral gavage measured 24 hrs post dose by LC/MS/MS analysis. It counts as ADME, organism-based, Canis lupus familiaris. More on the design: dose 2.5 mg/kg, route oral.
The nature of data set [2]: Half life in Beagle dog plasma at 0.5 mg/kg, iv by LC/MS/MS analysis. It counts as ADME, organism-based, Canis lupus familiaris.
A short description of data set [3]: Volume of distribution at steady state in CD-1 mouse plasma at 1 mg/kg, iv measured 24 hrs post dose by LC/MS/MS analysis. It counts as ADME, organism-based. The settings on record: read-out: Vdss.
A short description of data set [4]: Cmax in cynomolgus monkey plasma at […] administered via oral gavage measured 24 hrs post dose by LC/MS/MS analysis. It counts as ADME, organism-based, Macaca fascicularis. More on the design: dose 2.5 mg/kg, route oral.
The nature of data set [5]: Volume of distribution at steady state in Beagle dog plasma at 0.5 mg/kg, iv measured 24 hrs post dose by LC/MS/MS analysis. It counts as ADME, organism-based, Canis lupus familiaris. The conditions noted are these: read-out: Vdss.
The next data set has as its target T1, Cytochrome P450 2B6 (Homo sapiens, UniProt P20813).
T1 sequence (P20813 whole entry): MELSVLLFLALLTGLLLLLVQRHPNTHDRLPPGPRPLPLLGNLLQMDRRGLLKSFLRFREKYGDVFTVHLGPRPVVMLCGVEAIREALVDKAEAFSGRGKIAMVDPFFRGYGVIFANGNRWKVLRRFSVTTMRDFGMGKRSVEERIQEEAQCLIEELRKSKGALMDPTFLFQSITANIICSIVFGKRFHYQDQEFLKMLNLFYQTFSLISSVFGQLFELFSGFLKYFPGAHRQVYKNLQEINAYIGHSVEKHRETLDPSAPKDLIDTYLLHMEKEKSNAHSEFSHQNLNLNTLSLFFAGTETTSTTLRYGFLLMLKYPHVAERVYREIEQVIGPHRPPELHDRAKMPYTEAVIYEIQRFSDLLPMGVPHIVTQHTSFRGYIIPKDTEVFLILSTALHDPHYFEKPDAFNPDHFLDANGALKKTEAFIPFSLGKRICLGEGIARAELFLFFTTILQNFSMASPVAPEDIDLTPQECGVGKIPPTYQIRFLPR
Nature of the data set: Inhibition of CYP2B6 in human liver microsomes after 5 mins in presence of NADPH by LC-MS/MS analysis. It is filed as ADME.

Data set [6] is described as follows: Oral bioavailability in CD-1 mouse plasma at 5 mg/kg measured 24 hrs post dose by LC/MS/MS analysis. It is filed as ADME, organism-based.

Cytochrome P450 3A4, sequence (P08684 whole entry): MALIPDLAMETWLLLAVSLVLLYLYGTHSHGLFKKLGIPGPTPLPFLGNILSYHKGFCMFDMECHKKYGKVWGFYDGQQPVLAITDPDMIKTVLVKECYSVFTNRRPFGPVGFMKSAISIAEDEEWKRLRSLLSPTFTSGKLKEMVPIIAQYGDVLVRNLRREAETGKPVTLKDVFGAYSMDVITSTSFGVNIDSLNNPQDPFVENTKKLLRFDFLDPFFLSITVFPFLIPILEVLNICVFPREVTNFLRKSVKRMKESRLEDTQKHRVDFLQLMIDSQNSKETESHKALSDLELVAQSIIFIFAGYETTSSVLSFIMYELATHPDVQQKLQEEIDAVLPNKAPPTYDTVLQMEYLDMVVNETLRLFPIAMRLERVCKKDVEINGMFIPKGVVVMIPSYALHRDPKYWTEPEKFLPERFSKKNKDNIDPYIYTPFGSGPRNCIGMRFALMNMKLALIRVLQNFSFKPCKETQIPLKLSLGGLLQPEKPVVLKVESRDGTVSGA

As for `C[C@H](NC(=O)c1c(N)nn2cccnc12)c1cc2cccc(C#Cc3cnn(C)c3)c2c(=O)n1-c1ccccc1` [EGANELISIB], the IC50 at Cytochrome P450 3A4 and at Cytochrome P450 2B6 was over 20 µM throughout. The Cmax at 24 h worked out at 1900 nM in data set [1] and 560 nM in data set [4]. In data set [2], the half-life is 6.7 h. Also, the results for the Vd in data set [3] and in data set [5] were 0.8 L/kg and 1.3 L/kg, respectively. This compound also had a bioavailability in data set [6] of 88%.
